According to ChEMBL document CHEMBL1629541, “Synthesis and structure-activity relationships of aza- and diazabiphenyl analogues of the antitubercular drug (6S)-2-nitro-6-{[4-(trifluoromethoxy)benzyl]oxy}-6,7-dihydro-5H-imidazo[2,1-b][1,3]oxazine (PA-824)” (J Med Chem, 2010):
≈ marks a conversion by molar mass, not a printed value.

Experiments:
[1] = tested on: Mycobacterium tuberculosis; experiment: microbe, parasite or virus in culture; conditions: H37Rv
[2] = tested on: Mycobacterium tuberculosis; experiment: microbe, parasite or virus in culture; conditions: H37Rv; remark: listed apart in the source
Description: Antitubercular activity against Mycobacterium tuberculosis H37Rv by LORA method

physchem = conditions: water, pH 7
Description: Solubility of the compound in water at pH 7.0 by HPLC

Row | SMILES | MIC [1] | MIC [2] | solubility (physchem)
1 | O=[N+]([O-])c1cn2c(n1)OC[C@@H](OCc1cccc(-c3ccc(OC(F)(F)F)cc3)n1)C2 | 0.16 µM (≈ 0.0698 µg/mL) | 1.4 µM (≈ 0.611 µg/mL) | 
2 | O=[N+]([O-])c1cn2c(n1)OC[C@@H](OCc1cncc(-c3ccc(C(F)(F)F)cc3)c1)C2 | 0.15 µM (≈ 0.0631 µg/mL) | 3.5 µM (≈ 1.47 µg/mL) | 2.8 µg/mL (≈ 6.66 µM)
3 | O=[N+]([O-])c1cn2c(n1)OC[C@@H](OCc1ccc(-c3ccc(OCc4ccccc4)nc3)cc1)C2 | 0.04 µM (≈ 0.0183 µg/mL) | > 32 µM | 0.03 µg/mL (≈ 0.0654 µM)
4 | N#Cc1ccc(-c2ccc(CO[C@@H]3COc4nc([N+](=O)[O-])cn4C3)cc2)nc1 | 0.08 µM (≈ 0.0302 µg/mL) | 2.5 µM (≈ 0.943 µg/mL) | 1.7 µg/mL (≈ 4.5 µM)
5 | COc1ccc(-c2cc(CO[C@@H]3COc4nc([N+](=O)[O-])cn4C3)ccn2)cn1 | 1.3 µM (≈ 0.498 µg/mL) | 12 µM (≈ 4.6 µg/mL) | 93 µg/mL (≈ 243 µM)
6 | O=[N+]([O-])c1cn2c(n1)OC[C@@H](OCc1ccc(-c3ccc(OC(F)F)cc3)cn1)C2 | 0.02 µM (≈ 0.00837 µg/mL) | 4 µM (≈ 1.67 µg/mL) | 
7 | O=[N+]([O-])c1cn2c(n1)OC[C@@H](OCc1cccc(-c3ccc(C(F)(F)F)nc3)c1)C2 | 0.47 µM (≈ 0.198 µg/mL) | 8.4 µM (≈ 3.53 µg/mL) | 1.1 µg/mL (≈ 2.62 µM)
8 | O=[N+]([O-])c1cn2c(n1)OC[C@@H](OCc1cnc(-c3ccc(F)cc3)cn1)C2 | 0.085 µM (≈ 0.0316 µg/mL) | 2 µM (≈ 0.743 µg/mL) | 8.9 µg/mL (≈ 24 µM)
9 | O=[N+]([O-])c1cn2c(n1)OC[C@@H](OCc1ccc(-c3ccc(C(F)(F)F)cc3)cc1)C2 |  |  | 0.43 µg/mL (≈ 1.03 µM)
10 | O=[N+]([O-])c1cn2c(n1)OC[C@@H](OCc1ccnc(-c3ccc(F)cc3)c1)C2 | 0.17 µM (≈ 0.063 µg/mL) | 1.2 µM (≈ 0.444 µg/mL) | 31 µg/mL (≈ 83.7 µM)
11 | O=[N+]([O-])c1cn2c(n1)OC[C@@H](OCc1ccnc(-c3ccc(C(F)(F)F)cc3)c1)C2 | 0.075 µM (≈ 0.0315 µg/mL) | 4.4 µM (≈ 1.85 µg/mL) | 2.8 µg/mL (≈ 6.66 µM)
12 | O=[N+]([O-])c1cn2c(n1)OC[C@@H](OCc1ccccc1-c1ccncc1)C2 | > 8 µM | > 32 µM | 
13 | O=[N+]([O-])c1cn2c(n1)OC[C@@H](OCc1ccc(-c3ccc(OC(F)F)cc3)nn1)C2 | 0.17 µM (≈ 0.0713 µg/mL) | 7.5 µM (≈ 3.15 µg/mL) | 1.3 µg/mL (≈ 3.1 µM)
14 | O=[N+]([O-])c1cn2c(n1)OC[C@@H](OCc1cnc(-c3ccc(C(F)(F)F)cc3)nc1)C2 | 0.025 µM (≈ 0.0105 µg/mL) | 9.4 µM (≈ 3.96 µg/mL) | 
15 | COc1ccc(-c2ccnc(CO[C@@H]3COc4nc([N+](=O)[O-])cn4C3)c2)cn1 | 3.8 µM (≈ 1.46 µg/mL) | 31 µM (≈ 11.9 µg/mL) | 96 µg/mL (≈ 250 µM)
16 | N#Cc1ccc(-c2ccc(CO[C@@H]3COc4nc([N+](=O)[O-])cn4C3)cn2)cc1 | 0.18 µM (≈ 0.0679 µg/mL) | 6 µM (≈ 2.26 µg/mL) | 2.9 µg/mL (≈ 7.68 µM)
17 | O=[N+]([O-])c1cn2c(n1)OC[C@@H](OCc1ccc(-c3cncc(F)c3)cn1)C2 | 2.6 µM (≈ 0.965 µg/mL) | 21 µM (≈ 7.8 µg/mL) | 130 µg/mL (≈ 350 µM)
18 | O=[N+]([O-])c1cn2c(n1)OC[C@@H](OCc1ccc(-c3ccc(OC(F)(F)F)c(Cl)c3)cn1)C2 | 0.04 µM (≈ 0.0188 µg/mL) | 2.4 µM (≈ 1.13 µg/mL) | 0.85 µg/mL (≈ 1.81 µM)
19 | O=[N+]([O-])c1cn2c(n1)OC[C@@H](OCc1ccnc(-c3ccc(OC(F)F)cc3)c1)C2 | 0.055 µM (≈ 0.023 µg/mL) | 2.7 µM (≈ 1.13 µg/mL) | 16 µg/mL (≈ 38.2 µM)
20 | N#Cc1ccc(-c2ccc(CO[C@@H]3COc4nc([N+](=O)[O-])cn4C3)cc2)cn1 | 0.2 µM (≈ 0.0755 µg/mL) | 2.4 µM (≈ 0.906 µg/mL) | 3 µg/mL (≈ 7.95 µM)
21 | O=[N+]([O-])c1cn2c(n1)OC[C@@H](OCc1cnc(-c3ccc(OC(F)F)cc3)nc1)C2 | 0.13 µM (≈ 0.0545 µg/mL) | 4.4 µM (≈ 1.85 µg/mL) | 1.1 µg/mL (≈ 2.62 µM)
22 | O=[N+]([O-])c1cn2c(n1)OC[C@@H](OCc1cc(-c3ccc(OC(F)(F)F)cc3)ccn1)C2 | 0.76 µM (≈ 0.332 µg/mL) | 18 µM (≈ 7.85 µg/mL) | 
23 | O=[N+]([O-])c1cn2c(n1)OC[C@@H](OCc1cccc(-c3ccncc3)c1)C2 | 1.4 µM (≈ 0.493 µg/mL) | > 32 µM | 
24 | O=[N+]([O-])c1cn2c(n1)OC[C@@H](OCc1ccc(-c3ccc(C(F)(F)F)nc3)cn1)C2 | 0.24 µM (≈ 0.101 µg/mL) | 16 µM (≈ 6.74 µg/mL) | 12 µg/mL (≈ 28.5 µM)
25 | O=[N+]([O-])c1cn2c(n1)OC[C@@H](OCc1ncc(-c3ccc(OC(F)F)cc3)cn1)C2 | 0.12 µM (≈ 0.0503 µg/mL) | 7.4 µM (≈ 3.1 µg/mL) | 7.8 µg/mL (≈ 18.6 µM)
26 | O=[N+]([O-])c1cn2c(n1)OC[C@@H](OCc1cc(-c3ccc(C(F)(F)F)cc3)ccn1)C2 | 0.88 µM (≈ 0.37 µg/mL) | 24 µM (≈ 10.1 µg/mL) | 43 µg/mL (≈ 102 µM)

Row | SMILES | MIC [1] | MIC [2] | solubility (physchem)
27 | O=[N+]([O-])c1cn2c(n1)OC[C@@H](OCc1cnc(-c3ccc(F)cc3)nc1)C2 | 0.11 µM (≈ 0.0408 µg/mL) | 5.4 µM (≈ 2.01 µg/mL) | 
28 | O=[N+]([O-])c1cn2c(n1)OC[C@@H](OCc1ccc(-c3cccc(F)n3)cc1)C2 | 0.14 µM (≈ 0.0518 µg/mL) | 1.1 µM (≈ 0.407 µg/mL) | 4.3 µg/mL (≈ 11.6 µM)
29 | O=[N+]([O-])c1cn2c(n1)OC[C@@H](OCc1ccc(-c3ccccn3)cc1)C2 | 0.21 µM (≈ 0.074 µg/mL) | 1.7 µM (≈ 0.599 µg/mL) | 7.3 µg/mL (≈ 20.7 µM)
30 | O=[N+]([O-])c1cn2c(n1)OC[C@@H](OCc1ncc(-c3ccc(C(F)(F)F)nc3)cn1)C2 | 0.28 µM (≈ 0.118 µg/mL) | 14 µM (≈ 5.91 µg/mL) | 85 µg/mL (≈ 201 µM)
31 | COc1ccc(-c2ccc(CO[C@@H]3COc4nc([N+](=O)[O-])cn4C3)cn2)cn1 | 0.24 µM (≈ 0.092 µg/mL) | 7.3 µM (≈ 2.8 µg/mL) | 51 µg/mL (≈ 133 µM)
32 | O=[N+]([O-])c1cn2c(n1)OC[C@@H](OCc1cccc(-c3ccc(C(F)(F)F)cn3)c1)C2 | 0.32 µM (≈ 0.135 µg/mL) | 4.3 µM (≈ 1.81 µg/mL) | 4 µg/mL (≈ 9.52 µM)
33 | N#Cc1ccc(-c2ccc(CO[C@@H]3COc4nc([N+](=O)[O-])cn4C3)nn2)cc1 | 0.36 µM (≈ 0.136 µg/mL) | 13 µM (≈ 4.92 µg/mL) | 22 µg/mL (≈ 58.1 µM)
34 | O=[N+]([O-])c1cn2c(n1)OC[C@@H](OCc1ccc(-c3ccc(OC(F)F)cc3)nc1)C2 | 0.02 µM (≈ 0.00837 µg/mL) | 3.4 µM (≈ 1.42 µg/mL) | 1.6 µg/mL (≈ 3.82 µM)
35 | O=[N+]([O-])c1cn2c(n1)OC[C@@H](OCc1ccc(-c3cncc(F)c3)cc1)C2 | 0.55 µM (≈ 0.204 µg/mL) | 2.8 µM (≈ 1.04 µg/mL) | 55 µg/mL (≈ 149 µM)
36 | COc1ccc(-c2cccc(CO[C@@H]3COc4nc([N+](=O)[O-])cn4C3)n2)cc1F | 0.3 µM (≈ 0.12 µg/mL) | 4.3 µM (≈ 1.72 µg/mL) | 10 µg/mL (≈ 25 µM)
37 | O=[N+]([O-])c1cn2c(n1)OC[C@@H](OCc1ccc(-c3ccc(C(F)(F)F)cc3)nn1)C2 | 0.06 µM (≈ 0.0253 µg/mL) | 2.8 µM (≈ 1.18 µg/mL) | 5.4 µg/mL (≈ 12.8 µM)
38 | O=[N+]([O-])c1cn2c(n1)OC[C@@H](OCc1ccccc1-c1ccc(OCc3ccccc3)nc1)C2 | 2.7 µM (≈ 1.24 µg/mL) | 10 µM (≈ 4.58 µg/mL) | 1.2 µg/mL (≈ 2.62 µM)
39 | O=[N+]([O-])c1cn2c(n1)OC[C@@H](OCc1cncc(-c3ccc(OC(F)(F)F)cc3)c1)C2 | 0.17 µM (≈ 0.0742 µg/mL) | 2.4 µM (≈ 1.05 µg/mL) | 9.5 µg/mL (≈ 21.8 µM)
40 | COc1ccc(-c2ccc(CO[C@@H]3COc4nc([N+](=O)[O-])cn4C3)nn2)cn1 | 0.72 µM (≈ 0.277 µg/mL) | 20 µM (≈ 7.69 µg/mL) | 34 µg/mL (≈ 88.5 µM)
41 | O=[N+]([O-])c1cn2c(n1)OC[C@@H](OCc1cnc(-c3ccc(C(F)(F)F)nc3)cn1)C2 | 0.33 µM (≈ 0.139 µg/mL) | 3.7 µM (≈ 1.56 µg/mL) | 27 µg/mL (≈ 63.9 µM)
42 | N#Cc1ccc(-c2cc(CO[C@@H]3COc4nc([N+](=O)[O-])cn4C3)ccn2)cc1 | 0.38 µM (≈ 0.143 µg/mL) | 13 µM (≈ 4.91 µg/mL) | 8 µg/mL (≈ 21.2 µM)
43 | O=[N+]([O-])c1cn2c(n1)OC[C@@H](OCc1ccccc1-c1ccc(F)nc1)C2 | > 8 µM | 16 µM (≈ 5.93 µg/mL) | 35 µg/mL (≈ 94.5 µM)
44 | O=[N+]([O-])c1cn2c(n1)OC[C@@H](OCc1ccc(-c3ccc(Cl)c(OC(F)(F)F)c3)nc1)C2 | 0.18 µM (≈ 0.0847 µg/mL) | 2.4 µM (≈ 1.13 µg/mL) | 0.22 µg/mL (≈ 0.467 µM)
45 | COc1ccc(-c2ccc(CO[C@@H]3COc4nc([N+](=O)[O-])cn4C3)nn2)cc1F | 0.25 µM (≈ 0.1 µg/mL) | 6.6 µM (≈ 2.65 µg/mL) | 6.8 µg/mL (≈ 16.9 µM)
46 | O=[N+]([O-])c1cn2c(n1)OC[C@@H](OCc1ccc(-c3ccc(F)cc3)cn1)C2 | 0.13 µM (≈ 0.0481 µg/mL) | 3.2 µM (≈ 1.19 µg/mL) | 
47 | O=[N+]([O-])c1cn2c(n1)OC[C@@H](OCc1cccc(-c3ccccn3)c1)C2 | 1.4 µM (≈ 0.493 µg/mL) | 11 µM (≈ 3.88 µg/mL) | 
48 | O=[N+]([O-])c1cn2c(n1)OC[C@@H](OCc1cnc(-c3ccc(C(F)(F)F)nc3)nc1)C2 | 0.16 µM (≈ 0.0676 µg/mL) | 12 µM (≈ 5.07 µg/mL) | 
49 | O=[N+]([O-])c1cn2c(n1)OC[C@@H](OCc1ccc(-c3ccc(OC(F)(F)F)cc3Cl)nc1)C2 | 0.03 µM (≈ 0.0141 µg/mL) | 1.6 µM (≈ 0.753 µg/mL) | 
50 | O=[N+]([O-])c1cn2c(n1)OC[C@@H](OCc1ccc(-c3ccc(OC(F)(F)F)cc3Cl)cn1)C2 | 0.14 µM (≈ 0.0659 µg/mL) | 2.6 µM (≈ 1.22 µg/mL) | 
51 | O=[N+]([O-])c1cn2c(n1)OC[C@@H](OCc1ccc(-c3ccc(OC(F)(F)F)cc3F)cn1)C2 | 0.06 µM (≈ 0.0273 µg/mL) | 1.7 µM (≈ 0.772 µg/mL) | 
52 | O=[N+]([O-])c1cn2c(n1)OC[C@@H](OCc1cccc(-c3ccc(F)cc3)n1)C2 | 0.3 µM (≈ 0.111 µg/mL) | 2.7 µM (≈ 1 µg/mL) | 
